Where a SMILES comes first, the peptide text is derived from it. [ ]: non-standard residue; d: D form. Arg(Me) = CNC(=N)NCCC[C@H](N)C(=O)O; d4Pal = N[C@H](Cc1ccncc1)C(=O)O; azaGly = NNC(=O)O
Experiments:
Type in all cases: toxicity, cell-based
[1] = system: Fibroblast; assay: Incucyte cell viability with human fibroblast; details: 10 µM, compound concentration 10 uM
[2] = system: HEK-293T; assay: Incucyte cell viability with HEK293T; details: human, 10 µM, compound concentration 10 uM
[3] = system: U2OS; assay: Incucyte cell viability with U2OS; details: human, 10 µM, compound concentration 10 uM
[4] = 0 h, replicate number 1, timepoint 0 hours
[5] = 6 h, replicate number 1, timepoint 6 hours
[6] = 12 h, replicate number 1, timepoint 12 hours
[7] = 18 h, replicate number 1, timepoint 18 hours
[8] = 24 h, replicate number 1, timepoint 24 hours
[9] = 6 h, replicate number 2, timepoint 6 hours
[10] = 12 h, replicate number 2, timepoint 12 hours
[11] = 18 h, replicate number 2, timepoint 18 hours
[12] = 24 h, replicate number 2, timepoint 24 hours
[13] = 0 h, replicate number 2, timepoint 0 hours
Also: filed as whole numbers so only -1 and 0 and 1 occur.

| Compound | Growth Rate [1, 4] | Growth Rate [1, 5] | Growth Rate [1, 6] | Growth Rate [1, 7] | Growth Rate [1, 8] | Growth Rate [2, 4] | Growth Rate [2, 5] | Growth Rate [2, 6] | Growth Rate [2, 7] | Growth Rate [2, 8] | Growth Rate [3, 4] | Growth Rate [3, 9] | Growth Rate [3, 6] | Growth Rate [3, 10] | Growth Rate [3, 7] | Growth Rate [3, 11] | Growth Rate [3, 8] | Growth Rate [3, 12] | Growth Rate [1, 12] | Growth Rate [3, 5] | other results |
| --- | --- | --- | --- | --- | --- | --- | --- | --- | --- | --- | --- | --- | --- | --- | --- | --- | --- | --- | --- | --- | --- |
| C[C@@]1(Cc2ccc(C#N)cc2)C(=O)N(c2cc(Cl)cc(Cl)c2)c2ncc(C(=O)NC3(c4nc(C5CCC5)no4)CC3)n21 [BI 9446] | 0 | 0 | 0 | 0 | 0 | 0 | 0 | 0 | 0 | 0 | 0 | 0 | 1 | 0 | 1 | 0 | 1 | 0 |  |  |  |
| C=C1/C(=C\C=C2/CCC[C@]3(C)[C@@H]([C@H](C)/C=C/C=C/C(O)(CC)CC)CC[C@@H]23)C[C@@H](O)C[C@@H]1O [SEOCALCITOL] | 0 |  |  |  | 1 | 0 | 1 | 0 | 0 | 0 |  | 0 | 1 |  | 1 | 0 | 1 | 0 |  |  | Growth Rate [1, 9]: 0; Growth Rate [1, 10]: 0; Growth Rate [1, 11]: 1; Growth Rate [2, 9]: 0; Growth Rate [3, 13]: 1 |
| CN(C)C(=O)c1ccc(-c2cc(C(=O)N[C@@H]3CCc4ccccc43)no2)cc1O | 0 | 1 | 0 | 1 | 0 | 1 |  |  |  | 1 | 0 |  | 0 | 1 | 0 | 1 | 1 |  | 1 | 0 | Growth Rate [2, 9]: 0; Growth Rate [2, 10]: 0 |
| C[C@@H](c1cccc(CN)c1)n1cc(Cl)cc(C(N)=O)c1=N.Cl |  | 1 | 1 | 1 | 1 | 0 |  |  |  | 1 |  | 0 | 1 | 0 | 1 | 0 | 1 | 0 | 0 | 1 | Growth Rate [1, 13]: 0; Growth Rate [1, 9]: 0; Growth Rate [1, 10]: 0; Growth Rate [1, 11]: 0; Growth Rate [2, 13]: 1; Growth Rate [3, 13]: 1 |
| O=S(=O)(c1ccccc1)N(CC(F)(F)F)c1ccc(C(O)(C(F)(F)F)C(F)(F)F)cc1 [T091317] | 0 | 0 | 0 | 0 | 0 | 0 | 0 | 0 | 0 | 0 | 0 |  | 1 |  | 1 |  | 1 |  |  |  | Growth Rate [2, 9]: 1 |
| COc1cccc(OC)c1-c1cc(C(=O)NC2(C(=O)O)C3CC4CC(C3)CC2C4)nn1-c1ccc(C(=O)N(C)CCCN(C)C)cc1C(C)C (centres undefined) | 0 | 0 | 0 | 0 | 0 | 1 | 0 | 0 | 1 | 1 |  | 0 | 1 | 0 | 0 |  | 0 | 1 | 1 |  | Growth Rate [1, 11]: 1; Growth Rate [2, 13]: 0; Growth Rate [2, 9]: 1; Growth Rate [2, 10]: 1; Growth Rate [2, 11]: 0; Growth Rate [3, 13]: 0 |
| O=C(NCc1ncc(C(F)(F)F)cc1Cl)c1ccc2c(c1)C1(CCS(=O)(=O)CC1)[C@H](C1CC1)N2S(=O)(=O)c1ccc(F)cc1 [BAY-784] | 0 | 0 | 1 |  | 1 | 0 | 1 | 1 | 1 | 1 | 0 | 0 | 0 | 1 | 0 |  | 0 | 1 |  | 1 | Growth Rate [1, 11]: 1; Growth Rate [2, 10]: 0; Growth Rate [2, 11]: 0; Growth Rate [2, 12]: 0 |
| CC1(C)CCC(C)(C)c2cc(C3(c4ccc(C(=O)O)cc4)OCCO3)ccc21 | 0 | 1 | 1 | 1 | 1 | 0 |  | 1 | 1 | 1 | 0 | 0 | 1 | 0 | 1 | 0 | 1 |  |  |  | Growth Rate [2, 9]: 0 |
| CCC(=O)N1CCOc2c(cc(-c3ccc(OC)c(OC)c3)cc2OC[C@H]2CCCN(C)C2)C1 | 0 | 0 | 1 | 1 | 1 |  | 0 | 0 | 0 | 0 | 0 |  | 1 |  | 1 |  | 1 |  | 0 | 0 | Growth Rate [1, 10]: 0; Growth Rate [1, 11]: 0; Growth Rate [2, 13]: 1; Growth Rate [2, 11]: 1 |
| O=C(/C=C/N1C[C@H]2C[C@@H]1CN2c1ccccn1)c1ccccc1O |  | 1 | 1 | 1 | 1 | 0 |  |  |  |  | 0 |  | 1 | 0 | 0 |  | 0 |  |  | 0 | Growth Rate [1, 13]: 0; Growth Rate [2, 13]: 1 |
| CCn1cc(-c2cccc(C(F)(F)F)c2)c2sc(C(=N)NC3CCS(=O)(=O)CC3)cc2c1=O |  | 0 | 0 | 0 | 0 |  | 0 | 0 | 0 | 0 |  |  | 0 |  | 0 | 1 | 0 | 1 | 1 | 1 | Growth Rate [3, 13]: 0 |
| CCc1cc(C(C)=O)c(O)cc1OCCCCCC(C)(C)c1nn[nH]n1 [LY-255283] | 0 | 0 | 0 | 0 | 0 | 0 | 1 | 0 | 0 | 0 | 0 | 0 | 1 | 0 | 1 | 0 | 1 | 0 |  |  | Growth Rate [2, 9]: 0; Growth Rate [2, 12]: 1 |
| Cc1cc(Nc2nccc(C)n2)cc(-c2cnc([C@@]3(O)CC[C@H](C(=O)O)C(C)(C)C3)s2)c1 [MRL-SYKi] |  | 0 | 0 | 0 | 1 |  | 0 | 0 | 0 | 0 | 0 |  | 0 |  | 0 | 1 | 0 |  | 0 | 0 | Growth Rate [1, 13]: 1 |
| O=C(NCCCN1CCOC1=O)c1cnc(NCc2cc(Br)ccc2Br)nc1NC1CCCC1 |  | 0 | 0 | 0 | 0 | 0 | 1 |  | 1 | 1 | 0 |  | 1 |  | 0 |  | 1 |  |  | 1 | Growth Rate [2, 10]: 1; Growth Rate [2, 12]: 0 |
| CNC(=N)NCCC[C@H](NC(=O)[C@H](CC(C)C)NC(=O)NNC(=O)[C@H](Cc1ccccc1)NC(=O)[C@H](CO)NC(=O)[C@H](CC(N)=O)NC(=O)[C@@H](Cc1ccncc1)NC(=O)[C@H](N)Cc1ccc(O)cc1)C(=O)N[C@@H](Cc1ccccc1)C(N)=O [KISS1-305] (H-[dY][d4Pal]NSF[azaGly]L[Arg(Me)]F-NH2) | 0 | 0 | 0 | 0 | 0 | 0 | 0 | 1 | 0 | 0 |  | 1 | 1 |  | 0 |  | 0 |  |  |  | Growth Rate [2, 10]: 0; Growth Rate [3, 13]: 0 |
| COc1ccc(CNC(=O)c2cc(-c3cncc(Cl)c3)cnc2-c2ccccn2)nc1OC [MK-1064] | 0 | 0 | 0 | 1 | 0 | 0 | 0 | 1 | 0 | 1 | 0 | 0 | 1 |  | 1 | 0 | 1 |  | 1 |  | Growth Rate [2, 10]: 0; Growth Rate [2, 12]: 0 |
| Cc1nc(C2CCN(C(=O)c3ccc(OC(F)(F)F)cc3N)CC2)c2ncc(N3CCN(C)CC3)cc2n1 [BAY-693] | 1 | 1 | 1 | 1 | 1 | 0 |  |  |  |  | 0 | 1 | 0 | 1 | 0 | 1 | 0 | 1 |  | 0 | Growth Rate [1, 13]: 0; Growth Rate [2, 13]: 1; Growth Rate [2, 12]: 1 |
| CN1C(=O)[C@@H](N2CCc3cn(Cc4ccccc4)nc3C2=O)COc2ccccc21 [TP-030-1] |  | 0 | 0 | 0 | 0 | 0 |  |  |  |  |  |  | 1 |  | 1 |  | 1 |  |  | 1 | Growth Rate [1, 13]: 1; Growth Rate [2, 13]: 1; Growth Rate [2, 12]: 1; Growth Rate [3, 13]: 0 |
| C[C@H]1CC(=O)Nc2cc(C(=O)NCCC3CC3)ccc2N1C(=O)N1CC2CC2C1 (some centres undefined) | 0 | 0 | 1 | 0 | 1 | 0 |  |  | 1 | 0 | 1 |  | 1 |  | 1 |  | 1 |  | 0 | 0 | Growth Rate [1, 10]: 0; Growth Rate [2, 13]: 1; Growth Rate [2, 9]: 1; Growth Rate [2, 10]: 0; Growth Rate [2, 12]: 1 |

— ChEMBL document CHEMBL4689842, “EUbOPEN Chemogenomics Library wave 1” (2021)
